Assay results from EP4603105A1, “PHARMACEUTICAL COMPOSITION CONTAINING CYCLIC COMPOUND HAVING SELECTIVE KRAS INHIBITORY EFFECT AGAINST HRAS AND NRAS” (CHUGAI SEIYAKU KABUSHIKI KAISHA, priority 2022, dated 2024).
Where a SMILES comes first, the peptide text is derived from it. Bridges are numbered along the chain shown (N, C = ends). [ ]: non-standard residue; d: D form. The star is where a group is joined. hPhe(3-Cl-4-CF3) = N[C@@H](CCc1ccc(C(F)(F)F)c(Cl)c1)C(=O)O; NPrPhe(4-CF3) = CCCN[C@@H](Cc1ccc(C(F)(F)F)cc1)C(=O)O; NMeGly(cPent) = CN[C@H](C(=O)O)C1CCCC1; Pro(4,4-F2) = O=C(O)[C@@H]1CC(F)(F)CN1; Hyp = O=C(O)[C@@H]1C[C@@H](O)CN1; NMeL = CN[C@@H](CC(C)C)C(=O)O; Morpholide = C1CN(*)CCO1; NMeA = CN[C@@H](C)C(=O)O; Ac5c = NC1(C(=O)O)CCCC1; Aze = O=C(O)[C@@H]1CCN1; Ac4c = NC1(C(=O)O)CCC1; Sar = CNCC(=O)O

How the values were obtained:
[1] = tested on: human lung cancer strain NCI-H441; format: cell-based
Summary of the method: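 Step one: dispense the test compound in serial DMSO dilutions. Step three: add the reagent and measure […].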

[2] = molecular target: GDP-bound NRAS wild-type protein (Homo sapiens, UniProt P01111); assay: Binding to NRAS by surface plasmon resonance (SPR), KD and KD ratio to KRAS
GDP-bound NRAS wild-type protein, sequence (P01111 whole entry): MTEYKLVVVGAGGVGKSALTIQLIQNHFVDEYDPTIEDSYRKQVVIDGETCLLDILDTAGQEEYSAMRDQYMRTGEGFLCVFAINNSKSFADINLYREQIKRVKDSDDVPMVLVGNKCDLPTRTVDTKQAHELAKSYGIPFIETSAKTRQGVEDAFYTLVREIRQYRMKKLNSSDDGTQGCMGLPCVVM
Summary of the method: (§1)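 Running buffer contained 10 µM GDP and 10 mM MgCl2 to keep RAS in the GDP state, with 4% DMSO at pH 7.4. Compounds were flowed at 100 µL/min in 75 s steps of rising concentration over captured biotin-Avi RAS at 30°C. Sensorgrams were fitted 1:1 for KD.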

HRAS wild-type protein = HRAS wild-type protein (Homo sapiens, UniProt P01112); assay: Binding to HRAS by surface plasmon resonance (SPR), KD and KD ratio to KRAS
HRAS wild-type protein, sequence (P01112 whole entry): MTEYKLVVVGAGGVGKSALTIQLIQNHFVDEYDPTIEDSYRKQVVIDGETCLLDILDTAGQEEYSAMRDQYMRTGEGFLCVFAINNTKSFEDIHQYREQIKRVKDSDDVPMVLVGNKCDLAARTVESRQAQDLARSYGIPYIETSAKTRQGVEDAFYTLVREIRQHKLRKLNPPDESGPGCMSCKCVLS
Summary of the method: as §1

[3] = ratio of the KD value with respect to GDP-bound NRAS wild-type protein to the KD value with respect to KRAS
[4] = ratio of the KD value with respect to HRAS wild-type protein to the KD value with respect to KRAS
[5] = ratio of KD for GDP-bound NRAS wild-type protein to KD for KRAS
[6] = ratio of KD for HRAS wild-type protein to KD for KRAS
[7] = ratio of KD value for GDP-bound NRAS wild-type protein to KD value for KRAS (SPR)
[8] = ratio of KD value for HRAS wild-type protein to KD value for KRAS (SPR)

Row | SMILES | IC50 [1] [nM] | NRAS /KRAS [2, 3] | HRAS /KRAS (HRAS wild-type protein; [4]) | NRAS /KRAS [2, 5] | HRAS /KRAS (HRAS wild-type protein; [6]) | NRAS /KRAS [2, 7] | HRAS /KRAS (HRAS wild-type protein; [8])
1 | CC[C@H](C)[C@@H]1NC(=O)[C@H](C)N(C)C(=O)C[C@@H](C(=O)N(C)C)N(C)C(=O)[C@H](C2CCCC2)N(C)C(=O)C2(CCCC2)NC(=O)[C@@H]2CC(F)(F)CN2C(=O)[C@H](CCc2cc(F)c(C(F)(F)F)c(F)c2)NC(=O)CN(C)C(=O)[C@H](Cc2ccc(C(F)(F)F)cc2)N2CCCC[C@@H](C2=O)N(C)C(=O)CN(C)C1=O [PP0583] | 10.3 | C (A compound having a KD ratio of 0.1 or more and less than 3 is denoted as C) | C (A compound having a KD ratio of 0.1 or more and less than 3 is denoted as C) | – | – | – | –
2 | CCCN1C(=O)[C@@H]2CCN2C(=O)[C@H](C)N(C)C(=O)[C@H]([C@@H](C)CC)NC(=O)[C@H](CC(C)C)N(C)C(=O)C[C@@H](C(=O)N2CCOCC2)NC(=O)[C@H](C2CCCC2)N(C)C(=O)C2(CCC2)NC(=O)[C@@H]2C[C@@H](OCC)CN2C(=O)[C@H](CCc2ccc(C(F)(F)F)c(Cl)c2)NC(=O)CN(C)C(=O)[C@@H]1Cc1ccc(C(F)(F)F)cc1 [PP0348] ([NMeL]I[NMeA][Aze][NPrPhe(4-CF3)][Sar][hPhe(3-Cl-4-CF3)][Hyp](Et)[Ac4c][NMeGly(cPent)]D-Morpholide; lactam N-11) | 15.1 | – | – | C (A compound having a KD ratio of 0.1 or more and less than 3 is denoted as C) | B (a compound having 3 or more and less than 10 is denoted as B) | – | –
3 | CCCN1C(=O)CN(C)C(=O)CN(C)C(=O)[C@H]([C@@H](C)CC)NC(=O)[C@H](CC(C)C)N(C)C(=O)C[C@@H](C(=O)N(C)C)NC(=O)[C@H](C2CCCC2)N(C)C(=O)C2(CCCC2)NC(=O)[C@@H]2CC(F)(F)CN2C(=O)[C@H](CCc2ccc(C(F)(F)F)c(Cl)c2)NC(=O)CN(C)C(=O)[C@@H]1Cc1ccc(C(F)(F)F)cc1 [PP0357] ([NMeL]I[Sar][Sar][NPrPhe(4-CF3)][Sar][hPhe(3-Cl-4-CF3)][Pro(4,4-F2)][Ac5c][NMeGly(cPent)]D-NMe2; lactam N-11) | 39.8 | – | – | B (a compound having 3 or more and less than 10 is denoted as B) | B (a compound having 3 or more and less than 10 is denoted as B) | – | –
4 | CCO[C@@H]1C[C@H]2C(=O)NC3(CC(C)(C)C3)C(=O)N(C)[C@@H](C3CCCC3)C(=O)N(C)[C@H](C3CCC3)CC(=O)N(C)[C@@H](CC3CC3)C(=O)N[C@@H]([C@@H](C)CC)C(=O)N(C)CC(=O)N(C)[C@H]3C/C=C\CCN(C3=O)[C@@H](Cc3ccc(C(F)(F)F)cc3)C(=O)N(C)CC(=O)N[C@@H](CCc3cc(F)c(C(F)(F)F)c(F)c3)C(=O)N2C1 [PP1635] | 36.3 | – | – | – | – | B (a compound having 3 or more and less than 10 is denoted as B) | A (a compound having 10 or more and less than 20 is denoted as A)
5 | CCO[C@@H]1C[C@H]2C(=O)NC3(CC(C)(C)C3)C(=O)N(C)[C@@H](C3CCCC3)C(=O)N(C)[C@H](C(=O)N(C)CC)CC(=O)N(C)[C@@H](CC)C(=O)N[C@@H]([C@@H](C)CC)C(=O)N(C)CC(=O)N(C)[C@H]3C/C=C\CCN(C3=O)[C@@H](Cc3ccc(C(F)(F)F)cc3)C(=O)N(C)CC(=O)N[C@@H](CCc3ccc(Cl)c(Cl)c3)C(=O)N2C1 [PP2822] | 14.1 | – | – | A (a compound having 10 or more and less than 20 is denoted as A) | A (a compound having 10 or more and less than 20 is denoted as A) | – | –
6 | CCO[C@@H]1C[C@H]2C(=O)NC3(CCC3)C(=O)N(C)[C@@H](C3CCCC3)C(=O)N(C)[C@H](C(=O)N(C)C)CC(=O)N(C)[C@@H](CC)C(=O)N[C@@H]([C@@H](C)CC)C(=O)N(C)CC(=O)N(C)[C@H]3CCCCN(C3=O)[C@@H](Cc3ccc(C(F)(F)F)cc3)C(=O)N(C)CC(=O)N[C@@H](CCc3ccc(OC(F)F)c(F)c3)C(=O)N2C1 [PP0986] | 45.9 | – | – | C (A compound having a KD ratio of 0.1 or more and less than 3 is denoted as C) | C (A compound having a KD ratio of 0.1 or more and less than 3 is denoted as C) | – | –
7 | CCO[C@@H]1C[C@H]2C(=O)NC3(CC(C)(C)C3)C(=O)N(C)[C@@H](C(CC)CC)C(=O)N(C)[C@H](C(=O)N3CCCC3)CC(=O)N(C)[C@@H](COC)C(=O)N[C@@H]([C@@H](C)CC)C(=O)N(C)CC(=O)N(C)[C@H]3C/C=C\CCN(C3=O)[C@@H](Cc3ccc(C(F)(F)F)cc3)C(=O)N(C)CC(=O)N[C@@H](CCc3cc(F)c(C(F)(F)F)c(F)c3)C(=O)N2C1 [PP2123] | 24.3 | A (a compound having 10 or more and less than 20 is denoted as A) | A (a compound having 10 or more and less than 20 is denoted as A) | – | – | – | –
8 | CCC(CC)[C@H]1C(=O)N(C)[C@H](C(=O)N(C)C)CC(=O)N(C)[C@@H](COC)C(=O)N[C@@H]([C@@H](C)CC)C(=O)N(C)CC(=O)N(C)[C@H]2C/C=C\CCN(C2=O)[C@@H](Cc2ccc(C(F)(F)F)cc2)C(=O)N(C)CC(=O)N[C@@H](CCc2cc(F)c(C(F)(F)F)c(F)c2)C(=O)N2CC3(CC3)C[C@H]2C(=O)NC2(CC(C)(C)C2)C(=O)N1C [PP2961] | 13.9 | – | – | AA (a compound having 20 or more is denoted as AA) | A (a compound having 10 or more and less than 20 is denoted as A) | – | –
9 | CCCN(C)C(=O)[C@@H]1CC(=O)N(C)[C@@H](COC)C(=O)N[C@@H]([C@@H](C)CC)C(=O)N(C)CC(=O)N(C)[C@H]2C/C=C\CCN(C2=O)[C@@H](Cc2ccc(C(F)(F)F)cc2)C(=O)N(C)CC(=O)N[C@@H](CCc2cc(F)c(C(F)(F)F)c(F)c2)C(=O)N2C[C@H](OCC)C[C@H]2C(=O)NC2(CC(F)(F)C2)C(=O)N(C)[C@@H](C2CCCC2)C(=O)N1C [PP1743] | 5.1 | – | – | – | – | AA (a compound having 20 or more is denoted as AA) | A (a compound having 10 or more and less than 20 is denoted as A)
10 | CCO[C@@H]1C[C@H]2C(=O)NC3(CC(C)(C)C3)C(=O)N(C)[C@@H](C3CCCC3)C(=O)N(C)[C@H](C(=O)N(C)C)CC(=O)N(C)[C@@H](CC(F)(F)F)C(=O)N[C@@H]([C@@H](C)CC)C(=O)N(C)CC(=O)N(C)[C@H]3C/C=C\CCN(C3=O)[C@@H](Cc3ccc(C(F)(F)F)cc3)C(=O)N(C)CC(=O)N[C@@H](CCc3cc(F)c(C(F)(F)F)c(F)c3)C(=O)N2C1 [PP1644] | 2.7 | – | – | – | – | A (a compound having 10 or more and less than 20 is denoted as A) | A (a compound having 10 or more and less than 20 is denoted as A)
11 | CCO[C@@H]1C[C@H]2C(=O)NC3(CCCC3)C(=O)N(C)[C@@H](C3CCCC3)C(=O)N(C)[C@H](C(=O)N(C)C)CC(=O)N(C)[C@@H](CC(C)C)C(=O)N[C@@H]([C@@H](C)CC)C(=O)N(C)CC(=O)N(C)[C@H]3C/C=C\CCN(C3=O)[C@@H](Cc3ccc(C(F)(F)F)cc3)C(=O)N(C)CC(=O)N[C@@H](CCc3cc(F)c(Cl)c(F)c3)C(=O)N2C1 [PP2269] | 20 | A (a compound having 10 or more and less than 20 is denoted as A) | A (a compound having 10 or more and less than 20 is denoted as A) | – | – | – | –
12 | CCCC[C@H]1C(=O)N[C@@H]([C@@H](C)CC)C(=O)N(C)CC(=O)N(C)[C@H]2C/C=C\CCN(C2=O)[C@@H](Cc2ccc(C)cc2)C(=O)N(C)CC(=O)N[C@@H](CCc2cc(F)c(C(F)(F)F)c(F)c2)C(=O)N2C[C@H](OCC)C[C@H]2C(=O)NC2(CCC2)C(=O)N(C)[C@@H](C2CCCC2)C(=O)N(C)[C@H](C(=O)N(C)CC)CC(=O)N1C [PP2796] | 9.6 | – | – | A (a compound having 10 or more and less than 20 is denoted as A) | A (a compound having 10 or more and less than 20 is denoted as A) | – | –
13 | CC[C@H](C)[C@@H]1NC(=O)[C@H](CC(C)C)N(C)C(=O)C[C@@H](C(=O)N2CCOCC2)N(C)C(=O)[C@H](C2CCCC2)N(C)C(=O)C2(CCC2)NC(=O)[C@]2(C)CCCN2C(=O)[C@H](CCc2cc(F)c(C(F)(F)F)c(F)c2)NC(=O)CN(C)C(=O)[C@H](Cc2ccc(C(F)(F)F)cc2)N2CCCC[C@@H](C2=O)N(C)C(=O)CN(C)C1=O [PP0808] | 16.7 | – | – | B (a compound having 3 or more and less than 10 is denoted as B) | B (a compound having 3 or more and less than 10 is denoted as B) | – | –
14 | CCCN1C(=O)[C@@H]2CCN2C(=O)[C@H](C)N(C)C(=O)[C@H]([C@@H](C)CC)NC(=O)[C@H](CC(C)C)N(C)C(=O)C[C@@H](C(=O)N(C)C)NC(=O)[C@H](C2CCCC2)N(C)C(=O)C2(CCCC2)NC(=O)[C@@H]2C[C@@H](OCC)CN2C(=O)[C@H](CCc2ccc(C(F)(F)F)c(Cl)c2)NC(=O)CN(C)C(=O)[C@@H]1Cc1ccc(C(F)(F)F)cc1 [PP0383] ([NMeL]I[NMeA][Aze][NPrPhe(4-CF3)][Sar][hPhe(3-Cl-4-CF3)][Hyp](Et)[Ac5c][NMeGly(cPent)]D-NMe2; lactam N-11) | 2.6 | – | – | C (A compound having a KD ratio of 0.1 or more and less than 3 is denoted as C) | B (a compound having 3 or more and less than 10 is denoted as B) | – | –
